Several values for one entry are separate records, joined by “and”; a condition that tells them apart may be missing. Equal values may be shown once. Inconclusive results and toxic doses are left out. No stated cut-off is given here; in the data, active means T/C of 150% or more; inactive means T/C below 125%.
Test system: L1210 leukemia ip in BDF1 mice, survival T/C
Test: NCI In Vivo Anticancer Drug Screen. Data for tumor model L1210 Leukemia (intraperitoneal) in B6D2F1 (BDF1) mice
Conditions: endpoint: mean survival time, higher = longer survival
Outline: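 Transplantable tumor model; survival measured in treated vs vehicle control mice. Value = treated/control.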

[1] = dose: 100.0 mg/kg/injection, schedule: Q01DX001 (ip), vehicle: carboxymethylcellulose (CMC)
[2] = dose: 200.0 mg/kg/injection, schedule: Q01DX001 (ip), vehicle: carboxymethylcellulose (CMC)
[3] = dose: 100.0 mg/kg/injection, schedule: Q04DX003 (ip), vehicle: saline with Tween-80
[4] = dose: 400.0 mg/kg/injection, schedule: Q01DX001 (ip), vehicle: carboxymethylcellulose (CMC)
[5] = dose: 100.0 mg/kg/injection, schedule: Q04DX003 (ip), vehicle: saline
[6] = dose: 200.0 mg/kg/injection, schedule: Q04DX003 (ip), vehicle: saline
[7] = dose: 400.0 mg/kg/injection, schedule: Q04DX003 (ip), vehicle: saline
[8] = dose: 100.0 mg/kg/injection, schedule: Q01DX009 (ip), vehicle: Klucel (hydroxypropylcellulose) (HPC)
[9] = dose: 100.0 mg/kg/injection, schedule: Q04DX003 (ip), vehicle: Klucel (hydroxypropylcellulose) (HPC)
[10] = dose: 200.0 mg/kg/injection, schedule: Q01DX009 (ip), vehicle: Klucel (hydroxypropylcellulose) (HPC)
[11] = dose: 200.0 mg/kg/injection, schedule: Q04DX003 (ip), vehicle: Klucel (hydroxypropylcellulose) (HPC)
[12] = dose: 50.0 mg/kg/injection, schedule: Q01DX009 (ip), vehicle: Klucel (hydroxypropylcellulose) (HPC)
[13] = dose: 100.0 mg/kg/injection, schedule: Q01DX001 (ip), vehicle: saline

Measured: T/C

CCCCCCCCCC(=O)N1CCCCC1C (configuration not stated)
inactive: dose: 25.0 mg/kg/injection, schedule: Q04DX002 (ip), vehicle: carboxymethylcellulose (CMC) 97 % of control and 99 % of control | dose: 50.0 mg/kg/injection, schedule: Q01DX001 (ip), vehicle: carboxymethylcellulose (CMC) 93 % of control | dose: 50.0 mg/kg/injection, schedule: Q01DX009 (ip), vehicle: carboxymethylcellulose (CMC) 98 % of control and 103 % of control | dose: 50.0 mg/kg/injection, schedule: Q04DX002 (ip), vehicle: carboxymethylcellulose (CMC) 96 % of control and 97 % of control | dose: 50.0 mg/kg/injection, schedule: Q04DX003 (ip), vehicle: carboxymethylcellulose (CMC) 95 % of control | [1] 93 % of control | dose: 100.0 mg/kg/injection, schedule: Q01DX009 (ip), vehicle: carboxymethylcellulose (CMC) 94 % of control and 100 % of control | dose: 100.0 mg/kg/injection, schedule: Q04DX003 (ip), vehicle: carboxymethylcellulose (CMC) 97 % of control | [2] 96 % of control | dose: 200.0 mg/kg/injection, schedule: Q01DX009 (ip), vehicle: carboxymethylcellulose (CMC) 100 % of control and 104 % of control | dose: 200.0 mg/kg/injection, schedule: Q04DX002 (ip), vehicle: carboxymethylcellulose (CMC) 107 % of control and 92 % of control | dose: 200.0 mg/kg/injection, schedule: Q04DX003 (ip), vehicle: carboxymethylcellulose (CMC) 95 % of control | dose: 400.0 mg/kg/injection, schedule: Q04DX002 (ip), vehicle: carboxymethylcellulose (CMC) 103 % of control and 90 % of control

COc1cc(NC(C)CCCN)c2ncccc2c1 (configuration not stated)
inactive: dose: 25.0 mg/kg/injection, schedule: Q04DX003 (ip), vehicle: saline with Tween-80 104 % of control | dose: 50.0 mg/kg/injection, schedule: Q04DX003 (ip), vehicle: saline with Tween-80 95 % of control | [3] 95 % of control and 105 % of control

COc1cc(N(CCCl)CCCl)c(OC)cc1C=Nc1cccc(C(F)(F)F)c1
inactive: [1] 120 % of control | [2] 115 % of control | [4] 98 % of control

C/C(=N\O)c1ccc(OCC(O)CN2CCN(c3ccccc3)CC2)cc1 (configuration not stated)
inactive: dose: 37.5 mg/kg/injection, schedule: Q04DX003 (ip), vehicle: saline with Tween-80 101 % of control | dose: 50.0 mg/kg/injection, schedule: Q01DX009 (ip), vehicle: saline with Tween-80 103 % of control | dose: 75.0 mg/kg/injection, schedule: Q04DX003 (ip), vehicle: saline with Tween-80 93 % of control | dose: 100.0 mg/kg/injection, schedule: Q01DX009 (ip), vehicle: saline with Tween-80 108 % of control | dose: 150.0 mg/kg/injection, schedule: Q04DX003 (ip), vehicle: saline with Tween-80 101 % of control | dose: 200.0 mg/kg/injection, schedule: Q01DX009 (ip), vehicle: saline with Tween-80 115 % of control

CCOC(=O)C(CC(C(=O)OCC)C(=O)OCC)C(=O)OCC
inactive: dose: 75.0 mg/kg/injection, schedule: Q01DX009 (ip), vehicle: saline 98 % of control | [5] 113 % of control | dose: 150.0 mg/kg/injection, schedule: Q01DX009 (ip), vehicle: saline 98 % of control | [6] 97 % of control | dose: 300.0 mg/kg/injection, schedule: Q01DX009 (ip), vehicle: saline 95 % of control | [7] 97 % of control

Oc1ccccc1C=Nc1ccccc1O
inactive: dose: 33.0 mg/kg/injection, schedule: Q04DX002 (ip), vehicle: gum acacia 103 % of control | dose: 50.0 mg/kg/injection, schedule: Q04DX002 (ip), vehicle: gum acacia 100 % of control | dose: 75.0 mg/kg/injection, schedule: Q04DX002 (ip), vehicle: gum acacia 100 % of control | dose: 100.0 mg/kg/injection, schedule: Q01DX009 (ip), vehicle: gum acacia 89 % of control | dose: 100.0 mg/kg/injection, schedule: Q04DX002 (ip), vehicle: gum acacia 104 % of control | dose: 200.0 mg/kg/injection, schedule: Q01DX009 (ip), vehicle: gum acacia 105 % of control | dose: 200.0 mg/kg/injection, schedule: Q04DX002 (ip), vehicle: gum acacia 107 % of control | dose: 400.0 mg/kg/injection, schedule: Q01DX009 (ip), vehicle: gum acacia 89 % of control

C1CCC2C[N-]CCC2C1.C1CCC2C[N-]CCC2C1.C1CCC2C[N-]CCC2C1.C1CCC2C[N-]CCC2C1.[Cl][Rh][Cl] (configuration not stated)
inactive: dose: 0.5 mg/kg/injection, schedule: Q01DX009 (ip), vehicle: Klucel (hydroxypropylcellulose) (HPC) 101 % of control | dose: 1.0 mg/kg/injection, schedule: Q01DX009 (ip), vehicle: Klucel (hydroxypropylcellulose) (HPC) 108 % of control | dose: 2.0 mg/kg/injection, schedule: Q01DX009 (ip), vehicle: Klucel (hydroxypropylcellulose) (HPC) 110 % of control | dose: 2.0 mg/kg/injection, schedule: Q01DX009 (ip), vehicle: citric acid 92 % of control | dose: 3.12 mg/kg/injection, schedule: Q01DX009 (ip), vehicle: saline with Tween-80 105 % of control | dose: 3.12 mg/kg/injection, schedule: Q04DX003 (ip), vehicle: saline with Tween-80 105 % of control | dose: 4.0 mg/kg/injection, schedule: Q01DX009 (ip), vehicle: Klucel (hydroxypropylcellulose) (HPC) 103 % of control | dose: 6.25 mg/kg/injection, schedule: Q04DX003 (ip), vehicle: saline with Tween-80 108 % of control

CC(=O)OCCC/C(=C/c1cc2ccccc2c2ccccc12)[N+](=O)[O-]
inactive: [1] 95 % of control | [2] 95 % of control | [4] 97 % of control

C=C(Br)CN1C(=O)c2ccccc2C1=O
inactive: dose: 100.0 mg/kg/injection, schedule: Q01DX009 (ip), vehicle: saline 89 % of control | [5] 101 % of control | dose: 200.0 mg/kg/injection, schedule: Q01DX009 (ip), vehicle: saline 112 % of control | [6] 104 % of control | dose: 400.0 mg/kg/injection, schedule: Q01DX009 (ip), vehicle: saline 87 % of control | [7] 93 % of control

Cc1cc(OC(=O)c2ccc(N(C)C)cc2)ccc1[N+](=O)[O-]
inactive: [8] 95 % of control | [9] 96 % of control | [10] 94 % of control | [11] 91 % of control | dose: 400.0 mg/kg/injection, schedule: Q01DX009 (ip), vehicle: Klucel (hydroxypropylcellulose) (HPC) 97 % of control | dose: 400.0 mg/kg/injection, schedule: Q04DX003 (ip), vehicle: Klucel (hydroxypropylcellulose) (HPC) 95 % of control

O=S1c2ccccc2Sc2ccccc21
inactive: [3] 103 % of control | dose: 200.0 mg/kg/injection, schedule: Q04DX003 (ip), vehicle: saline with Tween-80 97 % of control | dose: 400.0 mg/kg/injection, schedule: Q04DX003 (ip), vehicle: saline with Tween-80 100 % of control

CCc1ccccc1NC(=O)c1cccc(C(=O)Nc2ccccc2CC)c1
inactive: [12] 98 % of control | [8] 94 % of control | [9] 91 % of control | [10] 110 % of control | [11] 88 % of control

COc1ccc(C(=S)N2CCN(c3ccccc3Cl)CC2)cc1
inactive: [13] 101 % of control | dose: 200.0 mg/kg/injection, schedule: Q01DX001 (ip), vehicle: saline 91 % of control | dose: 400.0 mg/kg/injection, schedule: Q01DX001 (ip), vehicle: saline 90 % of control

Nc1cc(S(=O)(=O)F)cc(Cl)c1O
inactive: [8] 105 % of control | [10] 103 % of control

NCCCC(=O)NCCCCCCNCCCCCCNC(=O)CCCN
inactive: dose: 50.0 mg/kg/injection, schedule: Q01DX001 (ip), vehicle: saline 98 % of control | [13] 104 % of control

CCC[CH2][Pb]([Cl])([CH2]CCC)[CH2]CCC
inactive: dose: 6.25 mg/kg/injection, schedule: Q01DX009 (ip), vehicle: saline with Tween-80 90 % of control

CC(=O)OC1CC2C(CCC3(C)C(C(C)=O)CCC23)C2(C)CCC(O)C=C12 (configuration not stated)
inactive: dose: 75.0 mg/kg/injection, schedule: Q01DX001 (ip), vehicle: other 101 % of control | dose: 150.0 mg/kg/injection, schedule: Q01DX001 (ip), vehicle: other 98 % of control | dose: 300.0 mg/kg/injection, schedule: Q01DX001 (ip), vehicle: other 103 % of control

O=C(/C=C/c1ccccc1)c1ccc([N+](=O)[O-])cc1
inactive: dose: 100.0 mg/kg/injection, schedule: Q04DX002 (ip), vehicle: Klucel (hydroxypropylcellulose) (HPC) 94 % of control | dose: 200.0 mg/kg/injection, schedule: Q04DX002 (ip), vehicle: Klucel (hydroxypropylcellulose) (HPC) 94 % of control | dose: 400.0 mg/kg/injection, schedule: Q04DX002 (ip), vehicle: Klucel (hydroxypropylcellulose) (HPC) 108 % of control

O=C(O)CC/C(=N/O)c1ccccc1
inactive: [12] 93 % of control | [8] 98 % of control | [10] 92 % of control
